These results are taken from patent US20260115250A1, “METHODS OF TREATING AGE-RELATED MACULAR DEGENERATION” (Character Biosciences, Inc., priority 2022, published 2026).

Ends that are not written are not given here. Peptide text beside a SMILES is read from it.

By Kd is commonly meant a measure of binding affinity in units of concentration.

For one assay, the target named is LDLR (Homo sapiens, UniProt P01130). Nature of the assay: LDLR binding (SPR), high surfactant preparation.
Chain of LDLR (P01130 22-860): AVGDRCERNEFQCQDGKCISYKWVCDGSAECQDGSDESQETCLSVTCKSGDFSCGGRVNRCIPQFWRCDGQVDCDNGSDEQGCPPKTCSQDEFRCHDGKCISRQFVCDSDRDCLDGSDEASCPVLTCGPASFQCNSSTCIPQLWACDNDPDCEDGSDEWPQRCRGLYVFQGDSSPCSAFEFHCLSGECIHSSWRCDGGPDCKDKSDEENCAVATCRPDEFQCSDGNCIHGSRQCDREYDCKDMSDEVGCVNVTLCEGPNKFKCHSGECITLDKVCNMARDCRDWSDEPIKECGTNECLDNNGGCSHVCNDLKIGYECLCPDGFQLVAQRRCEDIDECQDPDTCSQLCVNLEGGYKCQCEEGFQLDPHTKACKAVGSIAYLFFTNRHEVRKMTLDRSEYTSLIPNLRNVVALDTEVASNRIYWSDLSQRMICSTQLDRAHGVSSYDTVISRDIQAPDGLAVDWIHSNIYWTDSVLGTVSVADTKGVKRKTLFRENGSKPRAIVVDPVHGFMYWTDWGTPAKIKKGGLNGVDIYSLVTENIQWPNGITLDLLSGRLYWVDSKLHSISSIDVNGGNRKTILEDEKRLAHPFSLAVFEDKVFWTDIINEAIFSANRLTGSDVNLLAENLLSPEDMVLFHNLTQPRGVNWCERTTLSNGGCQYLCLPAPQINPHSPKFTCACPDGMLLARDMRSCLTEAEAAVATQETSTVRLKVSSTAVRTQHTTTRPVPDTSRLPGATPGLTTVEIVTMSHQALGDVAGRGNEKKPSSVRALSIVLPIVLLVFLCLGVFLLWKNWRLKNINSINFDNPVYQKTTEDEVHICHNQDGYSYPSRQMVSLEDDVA
Conditions: not given
Here is the method:
The table shown in FIG. 23 illustrates LDLR binding data (SPR), using a high surfactant preparation. Recombinant LDLR was diluted in 10 mM acetate buffer pH 4.5 and amine coupled to a CM5 chip at 1000 RU. Peptides were diluted to 5 μM in running buffer (HBS-P+, 1 mM CaCl2) and serially diluted 1:3 for 5 total concentrations. Peptides were exposed to immobilized LDLR at a rate of […] for 120 seconds. Between cycles, the chip surface was regenerated with 3 injections of 50 mM NaOH/100 mM EDTA. Multi-Cycle Kinetics was performed on a Biacore Insight Evaluation Software and binding kinetics were analyzed with a 1:1 binding model.
With `CC(C)C[C@H](NC(=O)[C@H](CCCNC(=N)N)NC(=O)[C@H](CC(=O)O)NC(=O)[C@H](CCC(N)=O)NC(=O)[C@H](CC(C)C)NC(=O)[C@H](CCCCN)NC(=O)[C@H](CC(=O)O)NC(=O)CNC(=O)[C@H](CC(=O)O)NC(=O)[C@H](CCCNC(=N)N)NC(=O)[C@H](CC(C)C)NC(=O)[C@H](CC(C)C)NC(=O)[C@H](CCCNC(=N)N)NC(=O)[C@H](CCCNC(=N)N)NC(=O)[C@H](CCCNC(=N)N)NC(=O)[C@H](CC(C)C)NC(=O)[C@H](CCCNC(=N)N)NC(=O)[C@H](CCCNC(=N)N)NC(=O)[C@H](CC(C)C)NC(=O)[C@@H](N)Cc1c[nH]cn1)C(=O)N[C@@H](C)C(=O)N[C@@H](CCC(=O)O)C(=O)N[C@@H](Cc1ccc(O)cc1)C(=O)N[C@@H](CCC(N)=O)C(=O)N[C@@H](C)C(=O)N[C@@H](CCCNC(=N)N)C(=O)N[C@@H](C)C(=O)N[C@@H](CCCCN)C(=O)N[C@@H](CCC(=O)O)C(=O)N[C@@H](C)C(=O)N[C@@H](Cc1ccccc1)C(=O)N[C@@H](CC(=O)O)C(=O)N[C@@H](CCCNC(=N)N)C(=O)O` [T-041] (H-HLRRLRRRLLRDGDKLQDRLAEYQARAKEAFDR-OH), the equilibrium dissociation constant (Kd) is less than 10 µM.
On the same count and under the same terms, under “DAWERFRALFKELADYFRLGQSTEELRVRLASHLRKLRKRLLRDADDLQKRLAVYQA [T-116]” stands less than 10 µM; under “MEDVRGRLVQYRGEVQAMLGQSTEELRVRLASHLRKLRKRLLRDADDLQKRLAVYQA [T-068]”, less than 10 µM; under “WKDFGERVERALREQFEDLGQSTEELRVRLASHLRKLRKRLLRDADDLQKRLAVYQA [T-113]”, less than 10 µM.

The same assay, now with this note: high surfactant preparation (HBS-P+), 1:1 binding model; read-out: binding KD to LDLR.
On to `CC(C)C[C@H](NC(=O)[C@H](CCCNC(=N)N)NC(=O)[C@H](CC(=O)O)NC(=O)[C@H](CCC(N)=O)NC(=O)[C@H](CC(C)C)NC(=O)[C@H](CCCCN)NC(=O)[C@H](CC(=O)O)NC(=O)CNC(=O)[C@H](CC(=O)O)NC(=O)[C@H](CCCNC(=N)N)NC(=O)[C@H](CC(C)C)NC(=O)[C@H](CC(C)C)NC(=O)[C@H](CCCNC(=N)N)NC(=O)[C@H](CCCCN)NC(=O)[C@H](CCCNC(=N)N)NC(=O)[C@H](CC(C)C)NC(=O)[C@H](CCCCN)NC(=O)[C@H](CCCNC(=N)N)NC(=O)[C@H](CC(C)C)NC(=O)[C@@H](N)Cc1c[nH]cn1)C(=O)N[C@@H](C)C(=O)N[C@@H](CCC(=O)O)C(=O)N[C@@H](Cc1ccc(O)cc1)C(=O)N[C@@H](CCC(N)=O)C(=O)N[C@@H](C)C(=O)N[C@@H](CCCNC(=N)N)C(=O)N[C@@H](C)C(=O)N[C@@H](CCCCN)C(=O)N[C@@H](CCC(=O)O)C(=O)N[C@@H](C)C(=O)N[C@@H](Cc1ccccc1)C(=O)N[C@@H](CC(=O)O)C(=O)N[C@@H](CCCNC(=N)N)C(=O)O` [T-040] (H-HLRKLRKRLLRDGDKLQDRLAEYQARAKEAFDR-OH), for which the Kd was less than 10 µM.
As for `CC(C)C[C@H](NC(=O)[C@H](CCCNC(=N)N)NC(=O)[C@H](CCCCN)NC(=O)[C@H](CCC(N)=O)NC(=O)[C@H](CC(C)C)NC(=O)[C@H](CC(=O)O)NC(=O)[C@H](CC(=O)O)NC(=O)[C@H](C)NC(=O)[C@H](CC(=O)O)NC(=O)[C@H](CCCNC(=N)N)NC(=O)[C@H](CC(C)C)NC(=O)[C@H](CC(C)C)NC(=O)[C@H](CCCNC(=N)N)NC(=O)[C@H](CCCCN)NC(=O)[C@H](CCCNC(=N)N)NC(=O)[C@H](CC(C)C)NC(=O)[C@H](CCCCN)NC(=O)[C@H](CCCNC(=N)N)NC(=O)[C@H](CC(C)C)NC(=O)[C@H](Cc1c[nH]cn1)NC(=O)[C@H](CO)NC(=O)[C@H](C)NC(=O)[C@@H](N)CC(C)C)C(=O)N[C@@H](C)C(=O)N[C@H](C(=O)N[C@@H](Cc1ccc(O)cc1)C(=O)N[C@@H](CCC(N)=O)C(=O)N[C@@H](C)C(=O)NCC(=O)N[C@@H](C)C(=O)N[C@@H](CCCNC(=N)N)C(=O)N[C@@H](CCC(=O)O)C(=O)NCC(=O)N[C@@H](C)C(=O)N[C@@H](CCC(=O)O)C(=O)N[C@@H](CCCNC(=N)N)C(=O)O)C(C)C` [T-046], the dissociation constant (Kd) is less than 10 µM.
On to `CC(C)C[C@H](NC(=O)[C@H](CCCNC(=N)N)NC(=O)[C@H](CCCCN)NC(=O)[C@H](CCC(N)=O)NC(=O)[C@H](CC(C)C)NC(=O)[C@H](CCCCN)NC(=O)[C@H](CC(=O)O)NC(=O)CNC(=O)[C@H](CC(=O)O)NC(=O)[C@H](CCCNC(=N)N)NC(=O)[C@H](CC(C)C)NC(=O)[C@H](CC(C)C)NC(=O)[C@H](CCCNC(=N)N)NC(=O)[C@H](CCCCN)NC(=O)[C@H](CCCNC(=N)N)NC(=O)[C@H](CC(C)C)NC(=O)[C@H](CCCCN)NC(=O)[C@H](CCCNC(=N)N)NC(=O)[C@H](CC(C)C)NC(=O)[C@@H](N)Cc1c[nH]cn1)C(=O)N[C@@H](C)C(=O)N[C@@H](CCC(=O)O)C(=O)N[C@@H](Cc1ccc(O)cc1)C(=O)N[C@@H](CCC(N)=O)C(=O)N[C@@H](C)C(=O)N[C@@H](CCCNC(=N)N)C(=O)N[C@@H](C)C(=O)N[C@@H](CCCCN)C(=O)N[C@@H](CCC(=O)O)C(=O)N[C@@H](C)C(=O)N[C@@H](Cc1ccccc1)C(=O)N[C@@H](CC(=O)O)C(=O)N[C@@H](CCCNC(=N)N)C(=O)O` [T-052] (H-HLRKLRKRLLRDGDKLQKRLAEYQARAKEAFDR-OH), for which the dissociation constant Kd was less than 10 µM.
Consider `CC(C)C[C@H](NC(=O)[C@H](CCCNC(=N)N)NC(=O)[C@H](CC(=O)O)NC(=O)[C@H](CCC(N)=O)NC(=O)[C@H](CC(C)C)NC(=O)[C@H](CCCCN)NC(=O)[C@H](CC(=O)O)NC(=O)CNC(=O)[C@H](CC(=O)O)NC(=O)[C@H](CCCNC(=N)N)NC(=O)[C@H](CC(C)C)NC(=O)[C@H](CC(C)C)NC(=O)[C@H](CCCNC(=N)N)NC(=O)[C@H](CCCCN)NC(=O)[C@H](CCCNC(=N)N)NC(=O)[C@H](CC(C)C)NC(=O)[C@H](CCCCN)NC(=O)[C@H](CCCNC(=N)N)NC(=O)[C@H](CC(C)C)NC(=O)[C@@H](N)Cc1c[nH]cn1)C(=O)N[C@@H](C)C(=O)N[C@@H](CCC(=O)O)C(=O)N[C@@H](Cc1ccc(O)cc1)C(=O)N[C@@H](CCC(N)=O)C(=O)N[C@@H](C)C(=O)N[C@@H](CCCNC(=N)N)C(=O)N[C@@H](C)C(=O)N[C@@H](CCCNC(=N)N)C(=O)N[C@@H](CCC(=O)O)C(=O)N[C@@H](C)C(=O)N[C@@H](Cc1ccccc1)C(=O)N[C@@H](CC(=O)O)C(=O)N[C@@H](CCCNC(=N)N)C(=O)O` [T-055] (H-HLRKLRKRLLRDGDKLQDRLAEYQARAREAFDR-OH), for which the Kd was less than 10 µM.
Regarding `CC(C)C[C@H](NC(=O)[C@H](CCCNC(=N)N)NC(=O)[C@H](CC(=O)O)NC(=O)[C@H](CCC(N)=O)NC(=O)[C@H](CC(C)C)NC(=O)[C@H](CCCCN)NC(=O)[C@H](CC(=O)O)NC(=O)CNC(=O)[C@H](CC(=O)O)NC(=O)[C@H](CCCNC(=N)N)NC(=O)[C@H](Cc1ccccc1)NC(=O)[C@H](CC(C)C)NC(=O)[C@H](CCCNC(=N)N)NC(=O)[C@H](CCCCN)NC(=O)[C@@H](NC(=O)[C@H](CC(C)C)NC(=O)[C@H](CCCCN)NC(=O)[C@H](CCCNC(=N)N)NC(=O)[C@H](CC(C)C)NC(=O)[C@@H](N)Cc1c[nH]cn1)C(C)C)C(=O)N[C@@H](C)C(=O)N[C@@H](CCC(=O)O)C(=O)N[C@@H](Cc1ccc(O)cc1)C(=O)N[C@@H](CCC(N)=O)C(=O)N[C@@H](C)C(=O)N[C@@H](CCCNC(=N)N)C(=O)N[C@@H](C)C(=O)N[C@@H](CCCCN)C(=O)N[C@@H](CCC(=O)O)C(=O)N[C@@H](C)C(=O)N[C@@H](Cc1ccccc1)C(=O)N[C@@H](CC(=O)O)C(=O)N[C@@H](CCCNC(=N)N)C(=O)O` [T-059] (H-HLRKLVKRLFRDGDKLQDRLAEYQARAKEAFDR-OH), the equilibrium dissociation constant (Kd) was less than 10 µM.
As to `CC(C)C[C@H](NC(=O)[C@H](CCCNC(=N)N)NC(=O)[C@H](CCCCN)NC(=O)[C@H](CCC(N)=O)NC(=O)[C@H](CC(C)C)NC(=O)[C@H](CC(=O)O)NC(=O)[C@H](CC(=O)O)NC(=O)[C@H](C)NC(=O)[C@H](CC(=O)O)NC(=O)[C@H](CCCNC(=N)N)NC(=O)[C@H](CC(C)C)NC(=O)[C@H](CC(C)C)NC(=O)[C@H](CCCNC(=N)N)NC(=O)[C@H](CCCCN)NC(=O)[C@H](CCCNC(=N)N)NC(=O)[C@H](CC(C)C)NC(=O)[C@H](CCCCN)NC(=O)[C@H](CCCNC(=N)N)NC(=O)[C@H](CC(C)C)NC(=O)[C@@H](N)Cc1c[nH]cn1)C(=O)N[C@@H](C)C(=O)N[C@@H](CCC(=O)O)C(=O)N[C@@H](Cc1ccc(O)cc1)C(=O)N[C@@H](CCC(N)=O)C(=O)N[C@@H](C)C(=O)N[C@@H](CCCNC(=N)N)C(=O)N[C@@H](C)C(=O)N[C@@H](CCCCN)C(=O)N[C@@H](CCC(=O)O)C(=O)N[C@@H](C)C(=O)N[C@@H](Cc1ccccc1)C(=O)N[C@@H](CC(=O)O)C(=O)N[C@@H](CCCNC(=N)N)C(=O)O` [T-064] (H-HLRKLRKRLLRDADDLQKRLAEYQARAKEAFDR-OH), the dissociation constant (Kd) is less than 10 µM.
Take `CSCC[C@H](NC(=O)[C@H](CC(C)C)NC(=O)[C@H](CC(=O)O)NC(=O)[C@H](CCCCN)NC(=O)CNC(=O)[C@H](Cc1ccc(O)cc1)NC(=O)[C@H](CC(=O)O)NC(=O)[C@@H](NC(=O)[C@@H](NC(=O)[C@@H](NC(=O)[C@H](CCC(N)=O)NC(=O)[C@H](Cc1ccccc1)NC(=O)[C@H](Cc1ccc(O)cc1)NC(=O)[C@H](CCC(N)=O)NC(=O)[C@H](CO)NC(=O)[C@@H](NC(=O)[C@H](CC(C)C)NC(=O)[C@H](CO)NC(=O)[C@H](CCCNC(=N)N)NC(=O)[C@H](C)NC(=O)[C@H](CC(C)C)NC(=O)[C@H](CCCNC(=N)N)NC(=O)[C@H](CCCCN)NC(=O)[C@H](CCCNC(=N)N)NC(=O)[C@H](CC(C)C)NC(=O)[C@H](CCCCN)NC(=O)[C@H](CCCNC(=N)N)NC(=O)[C@H](CC(C)C)NC(=O)[C@H](Cc1c[nH]cn1)NC(=O)[C@H](CCCNC(=N)N)NC(=O)[C@H](C)NC(=O)[C@@H](N)CC(C)C)C(C)C)[C@@H](C)O)C(C)C)[C@@H](C)O)C(=O)O` [T-066] (H-LARHLRKLRKRLARSLVSQYFQTVTDYGKDLM-OH): the Kd was less than 10 µM.
